# Experimental data: patent US5202338A, “Dihydroquinoline derivatives, pharmaceutical compositions and methods of use of dihydroquinoline derivatives as modulators of the arachidonic acid cascade” (priority 1990, dated 1993)
# Where a name gives a salt, the structure may show the parent alone.
# Legend:
# [1] = test system: cytochrome C and P 450; test: Cytochrome C and P450 activities in atherogenic-diet rats; assay type: in vivo; settings: atherosclerosis induced by atherogenic diet in rats
# Description: During model-experiments of atherosclerosis induced by atherogenic diet in rats, the pathologic increase of cythochrome C and P 450 enzyme activities is to be observed. This is disadvantageous because these enhanced enzyme activities induce tissular lipid peroxidation, involving all of its well known untoward consequences. As the first step of this chain reaction superoxyde - anion radical is formed from molecular oxygen. Laitar however initiate further few radical reactions.
# [2] = Acute toxicity study and determination of LD50; assay type: in vivo; settings: rat, in vivo; oral, Wistar rats of both sexes
# Description: (§1) The Example was carried out in Wistar rats (Lati, Budapest) of both sexes weighing 150-160 g each. Doses of L90 were measured by an analytical balance, for each animal and suspended in 2 ml of paraffine oil while mixing at 60° C. Suspension was then cooled to room temperature and administered through a gastric tube. Animals were fed with standard rat feed (Lati, Budapest) and received water ad libitum. They were kept at a room temperature of 23 to 25° C. The relative humidity of room air amounted to 50-70 percent. Three study groups of animals were formed.
# (§2) The animals received a single dose of L90 amounting to 1 g/kg body weight.
# (§3) The animals received a single dose of L90 amounting to 5 g/kg body weight.
# (§4) The animals received a single dose of 2 ml of paraffine oil (control group).
# (§5) Animals were carefully observed on 10 subsequent days, after treatment. On day 11, the animals were sacrificed in general anesthesia. Autopsy of all animals was performed followed by the macroscopic examination of all organs.
# [3] = test system: Wistar rats; test: Acute toxicity study and determination of LD50; assay type: in vivo
# Description: as §1, §2, §3, §4, §5
# [4] = test system: TXB2 formation in human leukocyte homogenate; test: TXB2 formation from arachidonic acid in human leukocyte homogenate (RIA); assay type: biochemical; settings: DMSO control 1.95 ± 0.31
# Description: The transformation of arachidonic acid to thromboxane B2 and leukotriene B4 in a human leukocyte homogenate was measured by means of the method published by Tetason, J. E. et al., Brit. J. Pharmacol., 1988 94:528-529, as follows: Fresh blood, from donors who had not ingested aspirin or other drugs for at least 14 days previously, was collected, with EDTA (1.2 mgml^-1) as anticoagulant; erythrocytes were sedimented by addition of 2% methyl cellulose (7.5 ml 100^-1 blood) and incubation for 40 minutes at 37° C. The supernatant containing leukocytes and platelets was removed, diluted two fold with sodium phosphate-buffered saline (0.9% NaCl, pH 7.2, 20 mM phosphate) and centrifuged for 10 minutes at 150 g. The supernatant, containing platelets, was removed and the leukocyte pellet resuspended in 50 ml of ice-cold 0.82% NH4 Cl containing 5 mM KCl (brought to pH 7.4 with 4.4% NaHCO3). This procedure lysed any remaining erythrocytes during 10 minutes incubation on ice. The leukocyte suspension was then centrifuged again (10 minutes, 150 g) and the pellet resuspended in 25 ml sodium phosphate buffer (50 mM, pH 7.0) containing EDTA (1 mM). […]
# DMSO was added. […] Reaction products, TXB2 and LTB4, were measured by specific radioimmunoassay (RIA) as published by Salmon, J. A. Prostaglandins, 1978 15: 383-397; and Salmon, J. A. et al., Prostaglandins, 1982, 24:225-235. […]
# [5] = test system: gastric mucosa; test: Protection of the gastric mucosa against ethanol; assay type: in vivo, rats; settings: anhydrous ethanol + 100 mg/kg by gastric tube; ethanol only 21±0.31%
# Description: The protection of the gastric mucosa against the effect of ethanol was investigated. Ten CFY male rats weighing 200 to 220 g each were starved for 18 hours while allowing them to consume water ad libitum. Then, a dose of 50 or 100 mg/kg of body weight of the compound prepared in Example 1 was administered in such a way that the active agent had previously homogenized in an 1% aqueous methylcellulose solution for 1 minute. The substance was administered through a gastric tube. After 30 minutes, 1 ml of anhydrous ethanol each was orally given to the animals. Five minutes later the animals were decapitated under a general anaesthesia, their stomachs were removed, opened along the large curvature and washed with water. Thereafter the stomachs were stretched out and photographed. The alterations found on the gastric mucosa were observed by planimetry. The lesions were given as percentage of the whole surface.
# [6] = test system: Erlich ascites tumor; test: Tumor-inhibiting effect on the Erlich ascites tumor; assay type: in vivo, mice
# Description: A daily oral dose of 150 mg/kg of body-weight of the compound prepared in Example 1 was administered to LATI-inbred CFLP male mice weighing 20 to 22 g each for 5 days, then 2×10^6 of Erlich ascites tumour cells were implanted under sterile conditions. Thereafter, the drug-treatment was continued and an examination was carried out on the 16th day following the implantation. An 80% inhibition was observed on the 17th day. The percentage of inhabitation was determined as described by Zs. Pollak in the dissertation entitled "Development of a Radiosensitizing Antioxidant and Use Thereof in the Oncological Practice" pages 44 to 45 and 76 to 82, as cited above.
# [7] = test system: extrinsic bronchial asthma; test: Investigation of MTDQ in vivo in steroid-dependent asthma patients; set-up: species or system human
# Description: Four women and two men (with an average age of 41 years); between 17 and 56 years participated in this study, who suffered from extrinsic bronchial asthma, and had earlier been treated with at least 20 mg/day of prednisolone (11,17,21-trihydroxypregn-4-ene-3,20-dione) or with an equivalent steroidal hormone since 2 to 15 years of age. During the experimental period, the patients were kept on the treatment commonly used for bronchial asthma, except steroidal hormones.
# On admission, their respiratory function characteristics were as follows:
# Their sputum became more dilute and easy to eliminate. On auscultation, a soft vesicular respiration was again observed over their lungs. The X-ray picture of the lungs was in agreement with the clinical improvement.
# On the fifteenth day of treatment, the respiratory functions were as follows:
# The experiment described in Example 10 was repeated, except that daily 300 mg of allopurinol (Milurit®, EGIS Pharmaceutical Works) were daily administered simultaneously with the start of the MTDQ administration. […] In the case of a prolonged treatment, the daily amount of MTDQ could be decreased from 2500 mg to 1000-1200 mg by using this combination.
# [8] = test system: hyperoxia (95% oxygen and 5% CO2); test: Hyperoxia-inhibiting effect; assay type: in vivo, rats
# Description: CFY rats with an average body weight of 250 g each, belonging to both sexes were kept in an atmosphere of 95% oxygen and 5% CO2. Three treatment groups were formed.
# Group 2 (n=25): Hyperoxia was induced as described for Group 1, however, 20 mg/kg body weight/day i.v. Dexamethasone (steroid hormone preparation) was administered during the hyperoxia period. […] Autopsy and histological examinations were performed on the animals died and on the animals sacrificed on the 35th day.
# Group 3 (n=25): Hyperoxia was induced as in the Groups mentioned above, but during the period of hyperoxia 65 mg/kg body weight of the compound according to Example 4 was administered i.v. The rate of death amounted to 4% (1 animal).
molecule,measurement,setting,value
"CC1=CC(C)(C)Nc2ccccc21 [2,2,4-trimethyl-1,2-dihydroquinoline]",Normalization of increased Cytochrome C and P450 activities,[1],did not exert this effect either
"CC(=O)C(c1ccc2c(c1)C(C)=CC(C)(C)N2)c1ccc2c(c1)C(C)=CC(C)(C)N2 [Example 1, 6,6'-acetylmethine-bis(2,2,4-trimethyl-1,2-dihydroquinoline)]",LD50 at 240 h,[2],> 5000 mg/kg
same,Survival and observations,"[3]; single oral dose 1 g/kg, day 11",all rats were alive
same,Mortality,"[3]; single oral dose 5 g/kg, n=8, 10 days of observation",Two rats belonging to Group 2 died on day 8
same,TXB2,[4]; 20/μM compound,0.68 ± 0.14
same,TXB2,[4]; 100/μM compound,0.53 ± 0.08
same,Gastric mucosa lesions as percentage of the whole surface,[5],4.2±0.51%
same,Tumor inhibition,"[6]; 150 mg/kg oral daily, CFLP male mice, 17th day",80%
same,Ascites ml.,"[6]; 150 mg/kg, control 15.06 + 2.85",3.95 + 0.62 ml
same,number of cells,"[6]; 150 mg/kg, control 96.5 × 10^7 /ml",7.33e+07 mL⁻¹
Vitamin A,Normalization of increased Cytochrome C and P450 activities,[1],did not exert this effects
O=C1O[C@H]([C@@H](O)CO)C(O)=C1O [Vitamin C],Normalization of increased Cytochrome C and P450 activities,[1],did not exert this effects
Oc1cc(O)c2c(c1)O[C@H](c1ccc(O)c(O)c1)[C@@H](O)C2 [(+) --Cyanidol],Normalization of increased Cytochrome C and P450 activities,[1],did not exert this effects
"CC1=CC(C)(C)Nc2ccc(Cc3ccc4c(c3)C(C)=CC(C)(C)N4)cc21 [MTDQ, 6,6'-methylene-bis(2,2,4-trimethyl-1,2-dihydroquinoline)]",Omission of steroidal hormone,[7]; MTDQ combined with 300 mg allopurinol daily,the steroidal hormone could immediately be omitted
same,Daily amount of MTDQ needed in prolonged treatment,"[7]; combined with 300 mg allopurinol daily, decreased from 2500 mg",1000 to 1200 mg
same,Partial oxygen pressure in the arterial blood,"[7]; fifteenth day of treatment, MTDQ 25 mg/kg orally daily, steroid stopped on day 4",10.9±0.45 kPa
same,Forced expiratory volume,"[7]; fifteenth day of treatment, MTDQ 25 mg/kg orally daily, normal value 2.5 to 2.8",2.06 ± 0.8 L
same,Forced vital capacity,"[7]; fifteenth day of treatment, MTDQ 25 mg/kg orally daily, normal value 3.5 to 4",3.78 ± 0.33 L
same,Clinical improvement,"[7]; fifth day, MTDQ 25 mg/kg orally daily",the patients became attack-free
NC(=O)c1nc[nH]c1N [4-amino-5-imidozolcarboxidamide],Normalization of increased Cytochrome C and P450 activities,[1],did not exert this effects
"CC(=O)C(c1ccc2c(c1)C(CS(=O)(=O)O)=CC(C)(C)N2)c1ccc2c(c1)C(CS(=O)(=O)O)=CC(C)(C)N2 [Example 4, sodium salt of 6,6'-acetylmethine-bis(2,2-dimethyl-1,2-dihydroquinoline-4-methanesulfonicacid)]",Rate of death,"[8]; 65 mg/kg i.v. during hyperoxia, untreated 50% died",4%
same,Pathological lesions at autopsy and histology,"[8]; 65 mg/kg i.v., animals sacrificed on 35th day",no pathological lesions were detected
"CC1(C)C=C(CS(=O)(=O)O)c2ccccc2N1 [2,2-dimethyl-4-methane-sulfonic acid salt-1,2-dihydroquinoline]",Normalization of increased Cytochrome C and P450 activities,[1],did not exert this effect either
C[C@@H]1C[C@H]2[C@@H]3CCC4=CC(=O)C=C[C@]4(C)[C@@]3(F)[C@@H](O)C[C@]2(C)[C@@]1(O)C(=O)CO [Dexamethasone],Rate of survival,[8]; 20 mg/kg/day i.v. during hyperoxia,did not improve
same,PGF1C and TXB2 concentrations,"[8]; 20 mg/kg/day i.v., compared to physiological parameters",significantly lower
same,Pathological lesions at autopsy and histology,"[8]; 20 mg/kg/day i.v., compared with Group 1",number and severity of the pathological lesions were found less than in Group 1
CC(C)(S)[C@@H](N)C(=O)O [D-Pencillamino],Normalization of increased Cytochrome C and P450 activities,[1],did not exert this effects
